Consider four compounds from EP0100051A1, “New derivatives of 1-alkylamine-(4(p-alkyloxy-benzamide)phenoxy)-2-propanol, having beta-sympatholytic activity, their salts, and production processes thereof” (A. Menarini S.a.S., priority 1982, dated 1984).

The subject of assay [1] is β -chronotropic effects (cardiac frequency increase), β .-inotropic effects (systolic ejection velocity increase), and ,β2 effects (diastolic pressure lowering). Briefly: antagonism of the effects of isoprenaline in the anaesthetized and reserpenized rat after oral administration (in vivo). The settings on record: for inherent sympathicomimetic activity: cardiac frequency in the reserpenized animal at rest; for cardioselectivity: from the in vivo and in vitro results, β1 versus β2 effects of isoprenaline; for power gap between vivo and vitro: in vivo activity relative to in vitro activity.

Assay [2] deals with β chronotropic effects (cavy right atrium), β1 inotropic effects (cavy ventricle) and 2 effects (cavy trachea) of the isoprenaline. The assay can be described thus: antagonism of the effects of isoprenaline on isolated tissues (in vitro). To be noted: compared with the compounds of the invention. From the text:
The beta-sympatholytic activity of the compounds under examination has been tested in vivo as antagonist to the β -chronotropic effects (cardiac frequency increase), β .-inotropic effects (systolic ejection velocity increase), and ,β2 effects (diastolic pressure lowering) of the isoprenaline upon the anaesthetized and reserpenized rat, after oral administration, and in vitro as antagonist to the β chronotropic effects (cavy right atrium), β1 inotropic effects (cavy ventricle) and 2 effects (cavy trachea) of the isoprenaline.

Molecules are shown by their SMILES.

As for `CC(C)NCC(O)COc1ccc(NC(=O)c2ccc(Cl)cc2)cc1` (centres unmarked) [1 [4(-p--chlorobenzamide)phenoxy] -3-isopropylamine-2-propanol], in assay [1], the inherent sympathicomimetic activity result was “also present”; the cardioselectivity result is reported as “also present”; the “power gap between vivo and vitro” value is “lack of a significant power gap between vivo and vitro”.

Consider `CC(C)NCC(O)COc1ccc(NC(=O)c2ccccc2)cc1` (centres unmarked) [1-(4-benzamidephenoxy)-3-isopropylamine-2-propanol], for which, in assay [1], the inherent sympathicomimetic activity result was “also present”; the cardioselectivity entry is “also present”; the “power gap between vivo and vitro” value is “lack of a significant power gap between vivo and vitro”.

`CC(=O)Nc1ccc(OCC(O)CNC(C)C)cc1` (centres unmarked) [practolol]: in assay [1], the inherent sympathicomimetic activity result is listed as “also present”; the cardioselectivity result is recorded as “also present”; the “power gap between vivo and vitro” value was “lack of a significant power gap between vivo and vitro”.

For the compound `CC(C)NCC(O)COc1cccc2ccccc12` (centres unmarked) [propranolol], the “power gap between vivo and vitro” value in assay [1] was “relevant decrease of the in vivo activity”. The “beta-sympatholytic activity in vitro” value in assay [2] is on record as “more active in vitro”.
